This note sets out measurements from US20220204489A1, “ARYLSULFONYLTHIOPHENECARBOXAMIDES AND ARYLSULFONYLFURANCARBOXAMIDES AS Kv3 POTASSIUM CHANNEL ACTIVATORS” (H. Lundbeck A/S, priority 2019, published 2022).

The target of this assay is T1, hKv3.1b (Homo sapiens, UniProt P48547).
T1 construct: expressed in transfected cells
T1 sequence (P48547 1-585 isoform P48547-2): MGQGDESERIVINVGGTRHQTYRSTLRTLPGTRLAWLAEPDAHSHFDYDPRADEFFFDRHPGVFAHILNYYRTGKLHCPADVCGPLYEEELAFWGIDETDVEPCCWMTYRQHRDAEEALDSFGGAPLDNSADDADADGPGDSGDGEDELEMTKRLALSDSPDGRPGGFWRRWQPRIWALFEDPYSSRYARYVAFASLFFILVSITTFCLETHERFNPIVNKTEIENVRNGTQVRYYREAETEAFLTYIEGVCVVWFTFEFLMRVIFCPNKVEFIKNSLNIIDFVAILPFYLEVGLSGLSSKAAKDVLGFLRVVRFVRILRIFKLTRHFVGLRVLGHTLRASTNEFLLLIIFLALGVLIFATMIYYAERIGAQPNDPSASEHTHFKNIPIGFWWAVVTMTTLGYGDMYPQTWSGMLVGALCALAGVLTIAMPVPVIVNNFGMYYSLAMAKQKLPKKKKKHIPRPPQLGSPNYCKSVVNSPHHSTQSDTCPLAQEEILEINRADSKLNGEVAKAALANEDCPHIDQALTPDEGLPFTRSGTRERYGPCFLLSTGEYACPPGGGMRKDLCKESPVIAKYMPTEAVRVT
Put plainly: QPatch automated whole-cell patch-clamp, shift of voltage threshold for channel activation. The conditions noted are these: HEK-293 cells stably expressing hKv3.1b; for ECdelta5mV: concentration needed to shift the threshold 5 mV, read from fitted concentration response curve; for Max threshold shift: maximum absolute shift of activation threshold to more hyperpolarized potentials at tested concentrations (0.37, 1.11, 3.33, 10, 30 μM). The format is cell-based. How it is done:
HEK-293 cells stably expressing hKv3.1b was used for the experiments. Cells were cultured in DMEM medium supplemented with 10% Fetal Bovine Serum, 100 ug/mL Geneticidin and 100 u/mL Penicillin/Streptomycin (all from Gibco). Cells were grown to 80-90% confluency at 37° C. and 5% CO2. On the day of the experiment the cells were detached from the tissue culture flasks by Detachin and resuspended in serum free medium containing 25 mM HEPES and transferred to the cell hotel of the QPatch. The cells were used for experiments 0-5 hours after detachment.
Patch-clamp recordings were performed using the automated recording system QPatch-16× (Sophion Bioscience, Denmark). Cells were centrifuged, SFM removed and the cells were resuspended in extracellular buffer containing (in mM): 145 NaCl, 4 KCl, 1 MgCl2, 2 CaCl2, 10 HEPES and 10 glucose (added fresh on the day of experiment); pH 7.4 adjusted with NaOH, 305 mOsm adjusted with sucrose.
Single cell whole-cell recordings were carried out using an intracellular solution containing (in mM): 120 KCl, 32.25/10 KOH/EGTA, 5.374 CaCl2, 1.75 MgCl2, 10 HEPES, 4 Na2ATP (added fresh on the day), pH 7.2 adjusted with KOH, 395 mOsm adjusted with sucrose. Cell membrane potentials were held at −80 mV and currents were evoked by voltage steps (200 ms duration) from −70 mV to +10 mV (in 10 mV increments). Vehicle (0.33% DMSO) or increasing concentration of compound (1) were applied and the voltage protocol was run 3 times (resulting in 3 min cpd incubation time). Five increasing concentrations of compound (1) were applied to each cell.
Leak subtraction protocol was applied at −33% of the sweep amplitude, and serial resistance values were constantly monitored.
Any cell where serial resistance exceeded 25 MOhm, membrane resistance less than 200 MOhm or current size at −10 mV less than 200 pA was eliminated from the subsequent analysis.
Data analysis was performed using Sophion's QPatch assay software in combination with Microsoft Excel™ (Redmond, Wash., USA).
Current voltage relationships were plotted from the peak current at the individual voltage steps normalized to the vehicle addition at 10 mV. The voltage threshold for channel activation was defined as 5% activation of the peak current at 10 mV in presence of vehicle. The activity of the compounds was described as the ability to shift this current voltage relationship to more hyperpolarized potentials and is given as the maximum absolute shift possible at the tested concentrations (0.37, 1.11, 3.33, 10, 30 μM). Concentration response curves were plotted from the threshold shift at the individual concentrations and were fitted excel fit model 205 sigmodal dose-response model (fit=A+((B−A)/1+((C/x)^D)))), where A is the minimum value, B the maximum value, C the EC50 value and D the slope of the curve. The concentration needed to shift the threshold 5 mV was readout from this curve (ECdelta5 mV).
Background: The patch-clamp technique gives a direct electrical read-out from membranes.

As for `Cc1ccc(S(=O)(=O)c2ccc(C(=O)NCc3cc(C)no3)s2)cc1` [Compound 13, 5-(4-methylbenzene-1-sulfonyl)-N-[(3-methyl-1,2-oxazol-5-yl)methyl]thiophene-2-carboxamide], the ECdelta5mV is reported as 2600 nM and the Max threshold shift was 14 mV.

`Cc1ccc(S(=O)(=O)c2ccc(C(=O)NCc3ncc(C)cn3)s2)cc1` [Compound 6, 5-(4-methylbenzene-1-sulfonyl)-N-[(5-methylpyrimidin-2-yl)methyl]thiophene-2-carboxamide]: the ECdelta5mV amounted to 3100 nM and the Max threshold shift is listed as 12 mV.

On to `Cc1ccc(S(=O)(=O)c2ccc(C(=O)NCc3cccnc3)s2)cc1` [Compound 8, 5-(4-methylbenzene-1-sulfonyl)-N-[(pyridin-3-yl)methyl]thiophene-2-carboxamide], for which the ECdelta5mV came out at 2900 nM and the Max threshold shift turned out to be 16 mV.

Regarding `Cc1ccc(S(=O)(=O)c2ccc(C(=O)NCc3cnc(C)nc3)s2)cc1` [Compound 17, 5-(4-methylbenzene-1-sulfonyl)-N-[(2-methylpyrimidin-5-yl)methyl]thiophene-2-carboxamide], the ECdelta5mV was 1700 nM and the Max threshold shift was found to be 24 mV.

For `Cc1cnc(CNC(=O)c2ccc(S(=O)(=O)c3ccc(C(F)F)cc3)s2)cn1` [Compound 21, 5-[4-(difluoromethyl)benzene-1-sulfonyl]-N-[(5-methylpyrazin-2-yl)methyl]thiophene-2-carboxamide], the ECdelta5mV amounted to 1700 nM and the Max threshold shift is given as 32 mV.

With `Cc1cnc(CNC(=O)c2ccc(S(=O)(=O)c3ccc(Cl)cc3)s2)cn1` [Compound 2, 5-(4-chlorobenzene-1-sulfonyl)-N-[(5-methylpyrazin-2-yl)methyl]thiophene-2-carboxamide], the ECdelta5mV was 1200 nM and the Max threshold shift is 36 mV.

As for `Cc1cnc(CNC(=O)c2ccc(S(=O)(=O)c3ccc(F)cc3C)s2)cn1` [Compound 20, 5-(4-fluoro-2-methylbenzene-1-sulfonyl)-N-[(5-methylpyrazin-2-yl)methyl]thiophene-2-carboxamide], the ECdelta5mV is 1900 nM and the Max threshold shift is listed as 29 mV.

Turning to `Cc1ccc(S(=O)(=O)c2ccc(C(=O)NCc3ccn(C)n3)s2)cc1` [Compound 7, 5-(4-methylbenzene-1-sulfonyl)-N-[(1-methyl-1H-pyrazol-3-yl)methyl]thiophene-2-carboxamide], the ECdelta5mV turned out to be 2500 nM and the Max threshold shift is recorded as 17 mV.

On to `COc1ccc(S(=O)(=O)c2ccc(C(=O)NCc3cnc(C)cn3)s2)cc1` [Compound 16, 5-(4-methoxybenzene-1-sulfonyl)-N-[(5-methylpyrazin-2-yl)methyl]thiophene-2-carboxamide], for which the ECdelta5mV is reported as 1500 nM and the Max threshold shift is 24 mV.

On to `Cc1ccc(S(=O)(=O)c2ccc(C(=O)NCc3cnc(C)cn3)s2)cc1` [Compound 1, 5-(4-methylbenzene-1-sulfonyl)-N-[(5-methylpyrazin-2-yl)methyl]thiophene-2-carboxamide], for which the ECdelta5mV was found to be 1200 nM and the Max threshold shift is listed as 24 mV.

For the compound `Cc1cc(F)ccc1S(=O)(=O)c1ccc(C(=O)NCc2cnccn2)s1` [Compound 19, 5-(4-fluoro-2-methylbenzene-1-sulfonyl)-N-[(pyrazin-2-yl)methyl]thiophene-2-carboxamide], the ECdelta5mV was 3800 nM and the Max threshold shift was 14 mV.

Regarding `Cc1ccc(S(=O)(=O)c2ccc(C(=O)NCc3cc(F)ccn3)o2)cc1` [Compound 25, N-[(4-fluoropyridin-2-yl)methyl]-5-(4-methylbenzene-1-sulfonyl)furan-2-carboxamide], the ECdelta5mV was found to be 4100 nM and the Max threshold shift stood at 15 mV.

Take `Cc1cnc(CNC(=O)c2ccc(S(=O)(=O)c3ccccc3C)s2)cn1` [Compound 4, 5-(2-methylbenzene-1-sulfonyl)-N-[(5-methylpyrazin-2-yl)methyl]thiophene-2-carboxamide]: the ECdelta5mV was determined as 1200 nM and the Max threshold shift amounted to 30 mV.

Consider `Cc1ccc(S(=O)(=O)c2ccc(C(=O)NCc3ncn(C)n3)s2)cc1` [Compound 15, 5-(4-methylbenzene-1-sulfonyl)-N-[(1-methyl-1H-1,2,4-triazol-3-yl)methyl]thiophene-2-carboxamide], for which the ECdelta5mV stood at 3100 nM and the Max threshold shift is 20 mV.

As for `Cc1ccc(S(=O)(=O)c2ccc(C(=O)NCc3cnn(C)c3)s2)cc1` [Compound 9, 5-(4-methylbenzene-1-sulfonyl)-N-[(1-methyl-1H-pyrazol-4-yl)methyl]thiophene-2-carboxamide], the ECdelta5mV turned out to be 2600 nM and the Max threshold shift amounted to 17 mV.

Take `Cc1cnc(CNC(=O)c2ccc(S(=O)(=O)c3ccc(F)cc3)s2)cn1` [Compound 3, 5-(4-fluorobenzene-1-sulfonyl)-N-[(5-methylpyrazin-2-yl)methyl]thiophene-2-carboxamide]: the ECdelta5mV was found to be 2200 nM and the Max threshold shift is listed as 19 mV.

As to `COc1ccc(S(=O)(=O)c2ccc(C(=O)NCc3cnccn3)o2)cc1` [Compound 24, 5-(4-methoxybenzene-1-sulfonyl)-N-[(pyrazin-2-yl)methyl]furan-2-carboxamide], the ECdelta5mV was 2700 nM and the Max threshold shift came to 20 mV.

Consider `Cc1ccc(S(=O)(=O)c2ccc(C(=O)NCc3nc(C)no3)s2)cc1` [Compound 11, 5-(4-methylbenzene-1-sulfonyl)-N-[(3-methyl-1,2,4-oxadiazol-5-yl)methyl]thiophene-2-carboxamide], for which the ECdelta5mV came to 2500 nM and the Max threshold shift was 17 mV.

On to `Cc1ccc(S(=O)(=O)c2ccc(C(=O)NCc3ccn(C)n3)o2)cc1` [Compound 23, 5-(4-methylbenzene-1-sulfonyl)-N-[(1-methyl-1H-pyrazol-3-yl)methyl]furan-2-carboxamide], for which the ECdelta5mV is given as 2400 nM and the Max threshold shift is listed as 17 mV.

For `Cc1ccc(S(=O)(=O)c2ccc(C(=O)NCc3cnccn3)s2)cc1` [Compound 10, 5-(4-methylbenzene-1-sulfonyl)-N-[(pyrazin-2-yl)methyl]thiophene-2-carboxamide], the ECdelta5mV was 1200 nM and the Max threshold shift is 25 mV.

For `Cc1ccc(S(=O)(=O)c2ccc(C(=O)NCc3cnc(C)cn3)o2)cc1` [Compound 22, 5-(4-methylbenzene-1-sulfonyl)-N-[(5-methylpyrazin-2-yl)methyl]furan-2-carboxamide], the ECdelta5mV turned out to be 2100 nM and the Max threshold shift is reported as 27 mV.

On to `Cc1ccc(S(=O)(=O)c2ccc(C(=O)NCc3ccc(C)nc3)s2)cc1` [Compound 5, 5-(4-methylbenzene-1-sulfonyl)-N-[(6-methylpyridin-3-yl)methyl]thiophene-2-carboxamide], for which the ECdelta5mV came to 2100 nM and the Max threshold shift was 21 mV.
